Measurements: patent publication US12195804B2, “Treatment of squamous cell carcinoma” (Board of Regents, The University of Texas System, priority 2018, dated 2025)

What was measured:
[1] = tested on: HNSCC cell lines; experiment: Colony formation assay; assay type: cell-based, human; settings: 48 hours treatment, 14-21 days, NOTCH1MUT compared with NOTCH1WT lines, below peak plasma concentration
Protocol: FIGS. 7A-7D: PI3K/mTOR signaling inhibition induces cell death in NOTCH1^MUT but not NOTCH1^WT head and neck squamous cell carcinoma (HNSCC) cell lines in vitro. FIG. 7A. Annexin V/propidium iodide or BrDU-terminal deoxynucleotidyl transferase (TdT) dUTP nick-end labeling (TUNEL) assays were used to measure apoptosis in HNSCC cells with the indicated NOTCH1 and PIK3CA mutations, which were treated with 50 nM GSK2126458 (GSK212) for 24 or 48 hours, respectively. Values are the means±standard deviations of three independent experiments. *p<0.05, unpaired two-tailed Student t-test. FIG. 7B. […] At 14-21 days after treatment, the cells were fixed and stained, images were captured using the GelCount Tumour Colony Counter, and colony numbers and the colorimetric intensity of the colonies were determined by measuring the optical density (OD) at 570 nm. […] Three NOTCH1^WT lines (black text and bars) and three NOTCH1^MUT lines (red text and bars) were treated with increasing concentrations of GSK212 for 4 hours, and levels of PI3K/mTOR pathway proteins were measured by Western blot analysis.
Colony formation assays. […] The total colony number and area were counted and analyzed using the ImageJ software program (National Institutes of Health, Bethesda, MD). […]

[2] = tested on: UMSCC49 cells; experiment: CellTiter-Glo viability, UMSCC49 parental and NOTCH1 KO; assay type: cell-based, human; settings: 72 hours
Protocol: FIGS. 9A-9D: NOTCH1 knockout (KO) sensitizes two NOTCH1^WT head and neck squamous cell carcinoma (HNSCC) cell lines to PI3K/mTOR pathway inhibition in vitro. Two NOTCH1^WT HNSCC cell lines (PJ34 and UMSCC49 [UM49]), parental cell lines, and NOTCH1 KO cell lines were treated with PI3K/mTOR pathway inhibitors. FIG. 9A. The CellTiter-Glo assay was used to assess the viability of cells treated for 72 hours with the indicated concentrations of GSK2126458 (GSK212). FIG. 9B. Western blot analysis of apoptosis markers, NOTCH1, and NOTCH intracellular domain (NICD) was performed after treatment with the indicated concentrations of GSK212 for 48 hours. FIG. 9C. Apoptosis in cells treated with 50 nM GSK212 or 200 nM BEZ235 for 48 hours was measured using an Annexin V/propidium iodide assay. Values are the means±standard deviations of three independent experiments. *p<0.05, unpaired two-tailed Student t-test. FIG. 9D. […] Colony areas as percentages of the control were measured using ImageJ. […]
Cell viability assay. […] Inhibitory concentration (ICs) and area under the curve (AUC) values were calculated using the drexplorer R package with a best-fit dose-response model (Zumsteg et al., 2016). The combination indices were calculated using the Chou-Talalay method (Cal et al., 2017) in CalcuSyn (Biosoft, Cambridge, UK). […]

SMILES: COc1ncc(-c2ccc3nccc(-c4ccnnc4)c3c2)cc1NS(=O)(=O)c1ccc(F)cc1F [GSK2126458]
- number of colonies formed and total cell number [1]: significantly reduced
- IC70 ([2]; UMSCC49 NOTCH1 KO): 360 nM
- IC70 ([2]; UMSCC49 parental): 1480 nM
